Laboratory results published in paper PMC4104029, “Mechanism of Action of Compound-13: An α1-Selective Small Molecule Activator of AMPK” (Chemistry & Biology, 2014).

Experiments:
[1] = molecular target: T1, AMPKα1β1γ2 with β1 Δ1–185 (ΔCBD) (Homo sapiens, UniProt Q13131+Q9UGJ0); test: AMPKα1β1γ2 mutagenesis, activation assay; type: biochemical; settings: 1 μM C2; complex purified from COS1 cells
T1 construct: made in house; host or cells: COS1 cells (transient transfection, FLAG-M2 purification)
T1 sequence (Q13131 whole entry, stated change not applied): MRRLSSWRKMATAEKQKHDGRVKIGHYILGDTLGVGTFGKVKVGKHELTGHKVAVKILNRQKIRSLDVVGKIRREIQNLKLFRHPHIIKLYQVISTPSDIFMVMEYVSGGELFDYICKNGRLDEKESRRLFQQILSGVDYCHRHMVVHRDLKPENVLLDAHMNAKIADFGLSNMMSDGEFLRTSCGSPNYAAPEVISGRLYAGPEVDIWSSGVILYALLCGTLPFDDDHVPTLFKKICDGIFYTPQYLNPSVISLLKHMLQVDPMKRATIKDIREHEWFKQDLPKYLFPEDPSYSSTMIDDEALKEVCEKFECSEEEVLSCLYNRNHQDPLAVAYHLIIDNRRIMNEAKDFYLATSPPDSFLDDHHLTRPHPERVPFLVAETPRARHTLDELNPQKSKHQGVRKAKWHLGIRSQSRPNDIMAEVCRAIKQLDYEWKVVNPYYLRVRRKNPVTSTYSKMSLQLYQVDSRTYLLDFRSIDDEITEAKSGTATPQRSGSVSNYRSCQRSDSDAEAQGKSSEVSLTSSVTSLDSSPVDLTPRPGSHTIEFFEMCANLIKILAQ
T1 sequence (Q9Y478 186-270 partner): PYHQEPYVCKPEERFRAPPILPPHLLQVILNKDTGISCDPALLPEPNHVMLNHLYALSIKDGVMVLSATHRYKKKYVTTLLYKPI
T1 sequence (Q9UGJ0 whole entry, stated change not applied): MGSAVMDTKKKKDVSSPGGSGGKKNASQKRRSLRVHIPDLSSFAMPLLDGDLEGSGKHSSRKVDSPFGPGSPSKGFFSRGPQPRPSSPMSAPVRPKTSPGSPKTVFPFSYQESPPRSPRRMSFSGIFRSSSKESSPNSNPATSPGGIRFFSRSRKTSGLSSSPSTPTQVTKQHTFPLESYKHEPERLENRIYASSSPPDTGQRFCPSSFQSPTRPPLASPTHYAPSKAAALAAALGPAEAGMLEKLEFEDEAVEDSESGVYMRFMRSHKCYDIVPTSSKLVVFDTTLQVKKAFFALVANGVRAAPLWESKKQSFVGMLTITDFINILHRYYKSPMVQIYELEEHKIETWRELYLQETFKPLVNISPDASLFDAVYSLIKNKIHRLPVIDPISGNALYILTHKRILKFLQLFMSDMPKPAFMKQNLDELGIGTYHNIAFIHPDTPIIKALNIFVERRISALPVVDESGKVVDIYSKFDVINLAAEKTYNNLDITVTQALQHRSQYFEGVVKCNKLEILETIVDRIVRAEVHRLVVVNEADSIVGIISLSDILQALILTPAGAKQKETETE
Experimental: (§1) Figure 2 C2 Is a Partial Agonist of α2 Complexes and Selectively Protects α1 Complexes against Dephosphorylation by PP2C (A and B) Recombinant AMPKα1β1γ1 (A) or AMPKα2β1γ1 (B) was assayed in the presence of AMP (30 μM) and increasing concentrations of C2 (0–20 μM). Results are expressed as fold increase in activity relative to controls without ligand and represent the mean ± SD for three independent experiments. (C and D) The effects of C2 and AMP on dephosphorylation and inactivation of AMPKα1β1γ1 (C) and α2β1γ1 (D) by PP2Cα (present in all assay conditions). Results are expressed as a percentage of control reactions performed in the absence of Mg^2+ and represent the mean ± SD of three independent experiments. Representative blots of pT172 and total AMPKα are shown below the bar charts. […] Results are expressed as the fold increase in activity relative to controls in the absence of compound and represent the mean ± SD for three independent experiments. […]
(§2) Competitive elution of AMPKγ2 from ATP-Sepharose. […] Resin was pelleted at low speed and the resulting supernatant analysed for the presence of AMPKγ2 by SDS-PAGE and staining with colloidal Coomassie (Generon). […]

AMPKα1β1γ2 with γ2 R531G = molecular target: T2, AMPKα1β1γ2 with γ2 R531G (Homo sapiens, UniProt Q13131+Q9UGJ0, R531G); test: AMPKα1β1γ2 mutagenesis, activation assay; type: biochemical; settings: 1 μM C2; complex purified from COS1 cells
T2 construct: made in house; host or cells: COS1 cells (transient transfection, FLAG-M2 purification)
T2 sequence (Q13131 whole entry): as the sequence (Q13131 whole entry, stated change not applied) above
T2 sequence (Q9Y478 whole entry partner): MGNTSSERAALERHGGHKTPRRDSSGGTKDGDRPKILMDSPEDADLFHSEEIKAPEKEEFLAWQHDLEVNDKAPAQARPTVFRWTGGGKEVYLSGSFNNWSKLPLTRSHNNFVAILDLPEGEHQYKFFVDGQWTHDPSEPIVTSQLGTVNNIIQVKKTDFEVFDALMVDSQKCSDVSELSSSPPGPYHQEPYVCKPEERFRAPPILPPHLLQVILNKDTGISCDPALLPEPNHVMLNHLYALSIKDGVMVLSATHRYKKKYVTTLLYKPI
T2 sequence (Q9UGJ0 whole entry R531G): as the sequence (Q9UGJ0 whole entry, stated change not applied) above, with R531G counted along it
Experimental: as §1, §2

[2] = parameters: method as in Gómez-Galeno et al., 2010; settings: 100 μM for up to 6 hr; ref Gómez-Galeno et al., 2010; cited from earlier work

## O=P(O)(O)c1ccc(-c2cc(O)on2)o1 [Compound C2, 5-(5-hydroxyl-isoxazol-3-yl)-furan-2-phosphonic acid]
[1]
  activation of mutant complex: unaffected
AMPKα1β1γ2 with γ2 R531G
  stimulation of mutant complex: failed to stimulate
[2]
  cellular accumulation: no significant cellular accumulation
